Measured values taken from US20130040331A1, “LABEL-FREE METHODS RELATED TO hERG POTASSIUM ION [sequence]” (CORNING INCORPORATED, priority 2009, published 2013).

Tests used:
[1] = test system: hERG channel or hERG-associated signaling complex; assay: Classification of hERG modulators by label-free biosensor profiles across three cell lines plus mallotoxin modulation index; format: cell-based, human
Source text: The traditional hERG ion channel assay involves assaying ion flux such as Rb^+ flux using ion absorption assays, or assaying hERG currents directly using patch clamping methods. Traditionally, a molecule which causes increase in Rb^+ flux and/or hERG currents is referred to a hERG activator, while a molecule which inhibits Rb^+ flux and/or hERG currents is referred to a hERG inhibitor. […] These hERG activators may or may not result in detectable biosensor signals in cells, using label-free biosensor cellular assays. A hERG activator that results in a detectable biosensor signal in a hERG expressing cell via hERG or hERG signaling complex is also referred to a label-free biosensor hERG activator.
Disclosed are methods of classifying a molecule for modulating hERG activity, comprising the steps: a. incubating a molecule individually with at least three different types of cells consisting of a native cell endogenously expressing hERG, an engineered cell stably expressing hERG and its parental cell without expressing hERG, and b. monitoring the molecule induced cellular response on each cell type with a label-free biosensor cellular assay,
Also disclosed are methods, further comprising as steps c) incubating a label-free biosensor hERG activator with each cell type in the presence of the molecule, d. monitoring the label-free biosensor hERG activator induced cellular response on each cell type in the presence of the molecule, e. generating a biosensor modulation index of the molecule against the label-free biosensor hERG activator induced biosensor signals in the two hERG expressing cell types.
The DMR modulation index was generated by normalizing the mallotoxin DMR signal in either cell line in the presence of compound […] to its corresponding DMR signal in the absence of the compound, and the percentage of modulation was based on the amplitude of the mallotoxin DMR signal at a specific time (−18 min after stimulation for HEK-hERG cells, and ˜50 min after stimulation for HT29 cells, respectively). Mallotoxin is known to display polypharmacology. It is also known to be a protein kinase C (PKC) inhibitor; and PKC is a downstream signaling component of hERG activation. Thus, it would be difficult or almost impossible to assign the mode(s) of action of mallotoxin to be a hERG activator when either cell line is individually assayed with the label-free biosensor (i.e., Epic® system). […] However, combining the primary DMR profiles of a compound across the three cell lines tested with the modulation index of the compound against the mallotoxin responses in both HT29 and […] cells can correctly identify whether the compound is a hERG activator or not. The results shown in FIG. 1 indicate that indeed mallotoxin is a hERG activator; and the activation of hERG can result in detectable biosensor responses in the two hERG expressing cell lines.

[2] = molecular target: T1, hERG channel (Homo sapiens, UniProt Q12809); assay: Rb+ flux assay using HEK-hERG cells; settings: for effect on hERG ion flux (Rb+ flux, FIG. 6): HEK-hERG cells, overall statement, KCl and concentration not specified
T1 sequence (Q12809 whole entry): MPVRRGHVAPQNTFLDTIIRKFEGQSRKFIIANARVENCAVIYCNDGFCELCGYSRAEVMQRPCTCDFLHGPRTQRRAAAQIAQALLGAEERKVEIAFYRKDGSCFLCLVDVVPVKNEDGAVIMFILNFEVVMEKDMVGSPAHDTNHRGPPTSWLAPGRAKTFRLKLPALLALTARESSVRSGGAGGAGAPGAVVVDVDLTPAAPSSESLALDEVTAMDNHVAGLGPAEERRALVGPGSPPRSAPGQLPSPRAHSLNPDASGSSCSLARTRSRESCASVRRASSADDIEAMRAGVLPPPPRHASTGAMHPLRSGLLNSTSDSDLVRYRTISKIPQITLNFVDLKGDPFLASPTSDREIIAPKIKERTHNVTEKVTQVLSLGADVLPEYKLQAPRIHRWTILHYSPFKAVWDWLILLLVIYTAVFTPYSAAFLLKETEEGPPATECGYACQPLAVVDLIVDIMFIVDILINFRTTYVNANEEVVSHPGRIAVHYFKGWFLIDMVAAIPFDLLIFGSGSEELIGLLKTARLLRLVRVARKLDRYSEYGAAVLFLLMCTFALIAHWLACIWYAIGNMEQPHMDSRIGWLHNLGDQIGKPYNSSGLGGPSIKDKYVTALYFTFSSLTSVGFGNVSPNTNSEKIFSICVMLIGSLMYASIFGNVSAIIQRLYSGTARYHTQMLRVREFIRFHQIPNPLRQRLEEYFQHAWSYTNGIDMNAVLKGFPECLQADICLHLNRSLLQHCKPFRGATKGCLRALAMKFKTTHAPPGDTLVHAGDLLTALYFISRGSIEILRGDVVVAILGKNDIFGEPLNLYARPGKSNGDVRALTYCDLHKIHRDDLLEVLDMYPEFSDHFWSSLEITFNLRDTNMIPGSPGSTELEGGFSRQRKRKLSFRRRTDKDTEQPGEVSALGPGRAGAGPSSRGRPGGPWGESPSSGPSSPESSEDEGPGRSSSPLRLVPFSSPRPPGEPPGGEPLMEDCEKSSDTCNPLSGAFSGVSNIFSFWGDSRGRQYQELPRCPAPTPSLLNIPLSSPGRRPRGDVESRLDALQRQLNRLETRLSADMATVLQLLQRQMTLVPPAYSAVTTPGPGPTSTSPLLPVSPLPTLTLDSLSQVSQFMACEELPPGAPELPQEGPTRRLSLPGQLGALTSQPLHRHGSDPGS
Experimental: Briefly, 50,000 cells per well were plated in 96-well tissue culture treated plates 20 hours before assay. In the next day, cells were incubated with complete cell culture medium containing 5 mM RbCl for 3 hours at 37° C. with 5% CO2. Then compounds (10×) diluted in HBSS were added into the cell culture medium and cells were incubated at 37° C. with 5% CO2 for another hour. Cells were washed twice with Rb^+ free cell culture medium and incubated with 180 μl/well of cell culture medium containing different concentration of KCl for exactly 10 minutes. The supernatant from each well was transferred to a new 96 well plate immediately. Cells were lysed with 180 μl/well 0.5% Triton-100 in HBSS. The Rb^+ concentration of each sample was determined by ICR8000 (Aurora Biomed Inc.).

[3] = molecular target: T1, hERG channel; assay: Automated patch clamp recording of hERG current using IonWorks, CHO-hERG cells; settings: for effect on hERG tail current: 50 μM, tail current at return to −35 mV; for effect on hERG current: final compound concentration 50 μM
Experimental: CHO—K1 cells stably expressing hERG channel (CHO-hERG) were cultured in T175 flask till about 70% confluent. Cells were washed twice with PBS, then 2.5 ml 0.25% Trypsin/EDTA was mixed with 2.5 ml PBS and added to the T175 flask. Cells were incubated about 2 minutes with the diluted Trypsin/EDTA solution at 37° C., then were continuously incubated about 3 minutes at room temperature. 20 ml fresh medium were added to suspend the cells and transfer to a 50 ml tube. Cells were centrifuged down at 750 rpm for 5 minutes. The extra medium was removed and cells were resuspended in 6 ml External Buffer (137 mM NaCl, 4 mM KCl, 1.8 mM CaCl2, 1 mM MgCl2, 10 mM HEPES, 10 mM glucose, pH 7.4). Then cells were centrifuged again at 450 rpm for another 5 minutes. Finally cells were resuspended in 4 ml the External Buffer, cell number was counted using a hemacytometer. Cell suspension was diluted to 2.5×10^6 cells/ml with the External Buffer. 4 ml of the resuspended cells were added to the cell reservoir in IonWorks. The Internal solution used contains: 40 mM KCl, 100 mM K-Gluconate, 3.2 mM MgCl2, 2 mM CaCl2, 5 mM HEPES, pH 7.25 (adjusted with KOH). 5 mg Amphotericin B from 200 ul DMSO stock was added to 65 ml the Internal solution and mixed well to achieve electrical access to the interior of cells on the patch plate.
Compounds were prepared from 10 mM DMSO stock and diluted in the External Buffer to make 3× compound solution. […] of the 3× compound solution was transferred to a 384 well plate in Row A, B, C and D. PD11857 (Sigma-Aldrich), a reported hERG channel activator was used as activator positive control (final concentration 30 and 50 μM). hERG blocker dofetilide was used as blocker positive control (final concentration 100 nM). The final DMSO concentration in the IonWorks Quattro PatchPlate PPC plate (Cat#9000-0902, Molecular Devices) was 0.5%. Final compound concentration was 50 μM. Each compound was added to four wells of one PPC plate.
hERG currents were recorded on IonWorks Quattro (Molecular Devices). To record hERG current, the cells were clamped at −80 mV initially, then followed by a 5-s depolarization at +40 mV to activate the channels. Tail currents were measured during an ensuing return to −35 mV. Data analysis were done using IonWorks Quttro® System Software version 2.0.4.4. Data from wells with seal resistance less than 50 MΩ or hERG tail currents less than 0.1 nA were filtered out. […] Inhibitor hits were selected if hERG tail currents ratio (post/pre-compound) is less than mean-2SD of the average DMSO control.
To record hERG current, the cells were clamped at −80 mV initially, then followed by a 5-s depolarization at +40 mV to activate the channels (phase a in FIG. 10A). Tail currents were measured during an ensuing return to −35 mV for 2 seconds (phase b in FIG. 10A). Final holding potential at −70 mV (phase c in FIG. 10B).

[4] = 5 mM KCl, compound at 10 or 50 μM

SMILES | hERG pathway activity class by label-free biosensor [1] | Rb+ signal in HEK-hERG cells [2, 4] | effect on hERG ion flux (Rb+ flux, FIG. 6) [2] | effect on hERG tail current [3] | effect on hERG current [3] | Rb+ signal in HEK-hERG cells ([2]; 40 mM KCl, compound at 10 μM) | effect on hERG current ([3]; listed as Mallotoxin)
O=C(O)c1ccccc1Nc1cccc(C(F)(F)F)c1 [flufenamic acid] | hERG pathway activator | small and dose-dependent increase | weak hERG ion flux activator | significantly increased | weak hERG current activator | – | –
CC(=O)c1c(O)c(C)c(O)c(Cc2c(O)c3c(c(C(=O)/C=C/c4ccccc4)c2O)OC(C)(C)C=C3)c1O [mallotoxin] | label-free hERG pathway activator | significant increase | strong hERG ion flux activator | significantly increases | significantly increases | obvious increase | strong hERG current activator
